Data: patent US12599662B2, “Methods and compositions for treating cancers” (INSERM (INSTITUT NATIONAL DE LA SANTÉ ET DE LA RECHERCHE …, priority 2018, dated 2026)

Columns and labels:
[1] = tested on: mammosphere-derived 4T1 cells; assay: MHC I expression on 4T1-derived mammospheres by flow cytometry; assay type: cell-based; details: 2 mM VPA
Protocol: (§1) FIG. 2: Valproic acid treatment increases MHC I expression in breast tumor cells. Variation in MHC I expression during VPA treatment at 2 mM on 4T1 adherent cells and on 4T1-derived mammospheres.
(§2) 4T1 cells are a triple negative breast cancer cell line that was incubated with increased doses (0.2 and 2 mM) of valproic acid (VPA). After 4 days of treatment, the MHC I surface marker was quantified by flow cytometry analysis.

4T1 cells [2] = assay: Vaccination study with irradiated hESC + adjuvants + VPA on 4T1 mice model; assay type: in vivo; details: for Percentage of tumor reduction (% of reduction): day 26, compared to control group receiving only PBS, irradiated hESC vaccine + named adjuvant, VPA 4 mg/ml in drinking water, 4T1 in mammary fat pad
Protocol: FIG. 1: Vaccination study with hESC combined with Valproic acid (VPA), Poly(A:U), ODN 2395 or Quil-A® adjuvant on 4T1 mice model. Vaccination study with hESC combined with Valproic acid (VPA), Poly(A:U), ODN 2395 or Quil-A® adjuvant on 4T1 mice model. Blab/c mice two boosts of vaccine containing 3 different adjuvants the day of tumor challenge. Tumor growth was assessed until 26 days to follow the tumor size using calipers permitting to measure both the longitudinal (a, mm) and transverse (b, mm) diameters. Tumor volume was calculated and plotted using calculation formula 1/6Π(a+b/2)3 mm3.
The experiment was carried out as followed: Five mice per group received two boosts of vaccine 7 and 14 days with 2×10^6 irradiated hESCs cells that were mixed with 3 different adjuvants: 500 μg of TLR3, 50 μg of TLR9 agonist or 50 μg/ml of Quil-A® Saponin vaccine adjuvant. After 14 days 5×10^4 4T1 cells were injected into the mammary fat pad of the mice and Valproic acid added in the drinking water at the dose of 4 mg/ml. Five mice receiving no treatment were used as control.
Adjuvants used in the vaccine product: Three different adjuvants were tested: • 1/ A TLR3-based adjuvant: Poly(A:U) (ref #tlrl-pau, InvivoGen) Polyadenylic-polyuridylic acid (poly(A:U)) is a synthetic double stranded RNA molecule that specifically signals through TLR3. Poly(A:U) is known to induce the activation of dendritic cells and T lymphocytes, to promote antigen-specific Th1-immune responses and to boost antibody production. […]

LLC1 [3] = assay: MTT cell proliferation assay on LLC1; assay type: cell-based; details: Mus musculus
Protocol: (§3) Non-small cell lung cancer (NSCLC) cell line (lewis lung carcinoma, LLC) expressing a particularly aggressive metastatic phenotype was used.
The half maximal inhibitory concentration (IC50) was first determined for each HDACi using an MTT cell proliferation assay. LLC1 was treated with an increasing dose of HDCAi and proliferation was estimated measuring the absorbance after the incorporation by the cell of MMT (3-(4,5-dimethylthiazol-2-yl)-2,5-diphenyl tetrazolium bromide) substrate.

LLC1 [4] = assay: MHC class I and II expression on LLC1 by flow cytometry; assay type: cell-based; details: for MHC class 2 expression: LLC1, dose corresponding to IC50; for increase of expression of MHC1 on the cell membrane: LLC1, dose corresponding to IC50, 48 hours, compared to untreated cells
Excerpt: FIG. 3: HDACi up-regulates MHC1 in Lung cancer cell lines. […] MHCI and MHCII expression was quantified by flow cytometry analysis measuring the Relative Fluorescence Intensity (RFI).
as §3

4T1 cells [5] = assay: Transcriptome analysis of VPA-treated 4T1 cells; assay type: cell-based; details: 0.5 mM VPA for 10 days versus non-VPA treated cells
Protocol: To determine the effect of VPA on 4T1 cells, a transcriptome analysis on cells treated with 0.5 mM of VPA for 10 days was performed and compared with that of non-VPA treated cells. These analyses allowed for the identification of the set of genes implicated in TNF-α signaling and in the response of IFN-α and IFN-γ. In addition, the use of the SAM algorithm allowed for the discrimination of 44 immune-related genes between the VPA-treated samples and their control counterparts, which were validated by principal component analysis (p-value=3.3×10^−4). […] These three molecules are known to contribute to the clonal expansion, survival, and development of T cells and regulate CD28 co-stimulation to promote Th1 cell responses. Consequently, this HDACi improves the immune response against the cancer cells.

4T1 cells [6] = assay: Surface marker expression on 4T1 cells by flow cytometry; assay type: cell-based
Protocol: as §1, §2

HDACs = details: cited from earlier work

| Molecule | Percentage of tumor reduction (% of reduction) (4T1 cells [2]) [%] | IC50 (LLC1 [3]) [µM] | MHC class 2 expression (LLC1 [4]) | increase of expression of MHC1 on the cell membrane (LLC1 [4]) [fold] | further results |
| --- | --- | --- | --- | --- | --- |
| CCCC(CCC)C(=O)O [VPA, acid-2-propylpentanoic] | 24 | ~2000 | not modulated | 2 | increase of MHC I expression (Relative Fluorescence Intensity) [1]: 2.7 fold; MHC1 overexpression versus non-treated LLC1 cells (LLC1 [4]; LLC1, FIG. 3A): 10 folds; fold change of CD74, CCL2 and TNFRSF9 expression (4T1 cells [5]): greater than 2; MHC I levels (4T1 cells [6]; 0.2 and 2 mM, 4 days of treatment): increasing MHC I levels in a dose-dependent manner; increase in PDL1 expression (4T1 cells [6]; 4T1 cells, 2 mM VPA): 2.1 fold; increase of MHC I expression (Relative Fluorescence Intensity) (4T1 cells [6]; 4T1 cells, 2 mM VPA): 2.1 fold; PDL2 expression (4T1 cells [6]; 4T1 cells, after VPA treatment): only weakly upregulated |
| Polyadenylic-polyuridylic acid [Poly(A:U)] | 54 | – | – | – | reduction of breast tumor volume (4T1 cells [2]; hESC vaccine + adjuvant, versus TLR9 agonist or Quil-A, p<0.001): highest reduction of breast tumor volume |
| O=C(CCCCCCC(=O)Nc1ccccc1)NO [Vorinostat, N-Hydroxy-N′-phenyloctanediamide] | – | – | not modulated | 2 | – |
| Nc1ccccc1NC(=O)c1ccc(CNC(=O)OCc2cccnc2)cc1 [Entinostat] | – | 2 to 4 | not modulated | 2 | – |
| CC[C@@H](C(N)=O)N1CCCC1=O [Levetiracetam] | – | 2 to 4 | not modulated | 2 | direct effect on HDACs (HDACs): no direct effect on HDACs |
| 2-pyrrolidinone-n-butyric acid [PBA] | – | – | – | – | Ki (HDACs; major carboxylic acid metabolite of levetiracetam in humans, read-out: Ki for HDAC inhibition): 2250 µM |
